Measurements from patent US10471088B2 (GNOSIS SPA, priority 2006, dated 2019).
Where “and” joins values, the source holds several entries; their conditions need not be identical. Equal entries are not always repeated.

Assays:
[1] = Accelerated stability (stress test 5 days at 53° C.) of starting material lots prior to / after mixing with calcium oxide; assay type: physicochemical; conditions: for Moisture content % K.F. (stress test) / Total impurities % (stress test) / % S,S (stress test) / SAMe titre % (stress test): 5 days at 53° C.; for permanent removal of the moisture content: mixture with calcium oxide after the stress test at 53° C. for 5 days
[2] = Analysis of starting material lots (SAMe salts, NADH) prior to / after mixing with calcium oxide, t = 0 and storage at 20° C. for 21 days; assay type: physicochemical; conditions: for permanent removal of the moisture content: mixture with calcium oxide stored for 21 days at 20° C.; for residual moisture content: starting material
[3] = after mixing with calcium oxide
[4] = prior to mixing with calcium oxide

permanent removal of the moisture content [1] | permanent removal of the moisture content [2] | Moisture content % K.F. t = 21 days at 20° C. [2, 4] | residual moisture content [2] | Compound | Moisture content % K.F. (stress test) [1, 3] | Total impurities % (stress test) [1, 3] | Moisture content % K.F. (stress test) [1, 4] | Total impurities % (stress test) [1, 4] | Moisture content % K.F. t = 0 [2, 3] | Moisture content % K.F. t = 21 days at 20° C. [2, 3] | Moisture content % K.F. t = 0 [2, 4] | % S,S (stress test) [1, 3] | SAMe titre % (stress test) [1, 3] | % S,S (stress test) [1, 4] | SAMe titre % (stress test) [1, 4] | % S,S t = 0 [2, 3] | SAMe titre % t = 0 [2, 3] | Total impurities % t = 0 [2, 3] | % S,S t = 0 [2, 4] | SAMe titre % t = 0 [2, 4] | also measured
approximately 60% | approximately 40% | 6.34% and 6.87% and 5.76% and 6.32% | 5-7 % K.F. | NC(=O)C1=CN([C@@H]2O[C@H](COP(=O)(O)OP(=O)(O)OC[C@H]3O[C@@H](n4cnc5c(N)ncnc54)[C@H](O)[C@@H]3O)[C@@H](O)[C@H]2O)C=CC1 [NADH] | 3.23% and 3.54% and 3.10% and 3.49% and 3.45% | 2.67% and 3.14% and 3.02% and 2.45% and 3.54% | 6.23% and 6.54% and 5.00% and 6.09% and 6.05% | 8.55% and 7.34% and 7.02% and 7.17% and 7.54% | 6.44% and 7.23% and 6.87% and 6.21% and 6.33% | 4.01% and 4.39% and 3.98% and 3.20% and 4.32% | 6.66% and 7.09% and 5.94% and 6.45% and 6.38% |  |  |  |  |  |  |  |  |  | NADH (sodium salt) titre % t = 0 (stress test) [1, 3]: 80.56% and 82.56% and 82.49% and 81.19% and 82.34%; NADH (sodium salt) titre % t = 0 (stress test) [1, 4]: 83.11% and 84.58% and 83.99% and 82.19% and 83.84%; NADH (sodium salt) titre % t = 0 ([2]; after mixing with 10% of calcium oxide): 83.93 (*) % and 84.23 (*) % and 83.95 (*) % and 84.53 (*) % and 85.32 (*) %; NADH (sodium salt) titre % t = 0 [2, 4]: 92.73% and 92.23% and 92.45% and 92.43% and 91.98%
approximately 60% | approximately 40% | 1.99% and 2.02% and 2.03% and 2.31% |  | S-adenosyl methionine-1,4-butene disulphonate | 0.81% and 0.88% and 0.78% and 0.87% and 0.93% | 2.13% and 1.35% and 2.03% and 1.98% and 2.00% | 1.96% and 1.93% and 2.09% and 2.21% and 2.00% | 4.63% and 4.47% and 4.06% and 4.23% and 4.05% | 1.80% and 1.84% and 1.94% and 1.89% and 1.87% | 1.38% and 1.40% and 1.33% and 1.45% and 1.27% | 1.89% and 1.94% and 2.03% and 2.01% and 1.98% | 71.89% and 70.94% and 70.34% and 70.02% and 71.32% | 50.04% and 50.00% and 50.01% and 49.89% | 59.49% and 58.98% and 59.43% and 60.02% and 60.32% | 51.72% and 50.79% and 50.94% and 50.93% and 51.03% | 84.54% and 85.25% and 84.21% and 85.02% and 83.49% | 50.34% and 50.08% and 50.01% and 49.78% and 50.12% | 0.57% and 0.53% and 0.49% and 0.50% | 84.82% and 85.34% and 84.58% and 83.89% | 52.02% and 51.78% and 51.34% and 51.54% and 52.34% | Total impurities % t = 0 [2, 4]: 0.67% and 0.64% and 0.44% and 0.56% and 0.45%
 |  |  | 1-1.5 % K.F. | C[S+](CC[C@H](N)C(=O)[O-])C[C@H]1O[C@@H](n2cnc3c(N)ncnc32)[C@H](O)[C@@H]1O (some centres unmarked) [SAMe, S-adenosyl methionine] |  |  |  |  |  |  |  |  |  |  |  |  |  |  |  |  | 

Compound | permanent removal of the moisture content [1] | permanent removal of the moisture content [2] | Moisture content % K.F. t = 21 days at 20° C. [2, 4] | residual moisture content [2] | Moisture content % K.F. (stress test) [1, 3] | Total impurities % (stress test) [1, 3] | Moisture content % K.F. (stress test) [1, 4] | Total impurities % (stress test) [1, 4] | Moisture content % K.F. t = 0 [2, 3] | Moisture content % K.F. t = 21 days at 20° C. [2, 3] | Moisture content % K.F. t = 0 [2, 4] | % S,S (stress test) [1, 3] | SAMe titre % (stress test) [1, 3] | % S,S (stress test) [1, 4] | SAMe titre % (stress test) [1, 4] | % S,S t = 0 [2, 3] | SAMe titre % t = 0 [2, 3] | Total impurities % t = 0 [2, 3] | % S,S t = 0 [2, 4] | SAMe titre % t = 0 [2, 4] | also measured
C[S+](CC[C@H](N)C(=O)O)C[C@H]1O[C@@H](n2cnc3c(N)ncnc32)[C@H](O)[C@@H]1O.Cc1ccc(S(=O)(=O)[O-])cc1 (some centres unmarked) [S-adenosyl methionine paratoluene sulphonate] | approximately 60% | approximately 40% | 1.09% and 1.12% and 1.13% and 1.05% and 1.03% |  | 0.35% and 0.38% and 0.43% and 0.41% and 0.39% | 2.89% and 3.02% and 3.17% and 2.78% and 2.65% | 0.99% and 1.00% and 1.09% and 1.05% and 1.03% | 4.34% and 5.02% and 5.17% and 5.54% and 4.55% | 1.04% and 0.95% and 0.98% and 1.16% and 1.00% | 0.59% and 0.61% and 0.63% and 0.55% and 0.70% | 1.09% and 1.04% and 1.15% and 1.08% and 1.06% | 65.79% and 67.25% and 66.47% and 65.43% and 66.56% | 49.98% and 49.87% and 50.09% and 50.00% and 49.81% | 55.79% and 55.28% and 56.21% and 56.31% and 56.12% | 49.58% and 49.99% and 51.19% and 50.84% and 50.11% | 79.99% and 81.23% and 80.67% and 80.32% and 80.11% | 50.23% and 50.19% and 50.22% and 50.02% and 50.16% | 0.94% and 1.04% and 0.66% and 0.73% and 1.03% | 79.82% and 81.54% and 80.87% and 80.02% and 80.21% | 52.23% and 52.29% and 52.96% and 51.98% and 52.76% | Total impurities % t = 0 [2, 4]: 0.94% and 1.04% and 0.66% and 0.73% and 1.03%
